Molecular target: T1, BaF3 BRAF-KIAA1549 fusion cells (Homo sapiens, UniProt P15056)
T1 construct: The BRAF-KIAA1549 fusion mutant was subcloned into pMXs-IRES-Blasticidin (RTV-016, Cell Biolabs, San Diego, CA); No tag given; Q9HCM3 (UPF0606 protein KIAA1549)
Assay: BaF3 BRAF-KIAA1549 fusion cell proliferation assay (CellTiterGlo, 96 hours)
Assay type: cell-based
How it was run: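 BaF3 cells retrovirally transduced with BRAF-KIAA1549 fusion and blasticidin-selected were plated at 7×10^4 c/well in RPMI, 10% heat-inactivated FBS, 1% L-glutamine, and exposed to compound for 96 hours. Growth was read as ATP content by CellTiterGlo luminescence. IC50 was fitted by Levenberg-Marquardt, normalised to DMSO-treated cells.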

T1 sequence (P15056 whole entry, change not shown, the tested form may be a part): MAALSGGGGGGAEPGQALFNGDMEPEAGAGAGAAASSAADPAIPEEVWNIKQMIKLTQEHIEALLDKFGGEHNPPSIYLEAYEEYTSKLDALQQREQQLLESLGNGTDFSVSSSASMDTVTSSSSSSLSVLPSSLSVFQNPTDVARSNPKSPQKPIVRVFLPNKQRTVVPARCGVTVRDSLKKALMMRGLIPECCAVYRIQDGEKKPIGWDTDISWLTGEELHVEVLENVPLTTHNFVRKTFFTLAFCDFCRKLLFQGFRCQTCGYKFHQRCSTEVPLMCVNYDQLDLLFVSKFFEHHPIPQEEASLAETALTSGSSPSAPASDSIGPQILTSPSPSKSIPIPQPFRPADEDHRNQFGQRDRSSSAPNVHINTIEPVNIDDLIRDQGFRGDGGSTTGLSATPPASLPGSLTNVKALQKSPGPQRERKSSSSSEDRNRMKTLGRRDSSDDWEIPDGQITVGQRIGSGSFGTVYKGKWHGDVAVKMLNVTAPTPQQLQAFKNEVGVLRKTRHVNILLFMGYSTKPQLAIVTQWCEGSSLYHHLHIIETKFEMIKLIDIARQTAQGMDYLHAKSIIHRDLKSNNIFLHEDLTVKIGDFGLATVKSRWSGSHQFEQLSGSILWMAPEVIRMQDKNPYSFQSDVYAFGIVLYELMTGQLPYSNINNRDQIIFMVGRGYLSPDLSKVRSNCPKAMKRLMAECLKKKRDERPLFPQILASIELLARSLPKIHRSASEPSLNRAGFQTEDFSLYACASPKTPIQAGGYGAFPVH

Structure (SMILES) | GI50 (Table A1) | GI50 (Table A2)
CNc1cc2ncc(-c3cc(NC(=O)c4cc(C(C)(C)C#N)ccn4)c(F)c(F)c3C)cc2cn1 [Compound 51, 4-(2-Cyanopropan-2-yl)-N-(2,3-difluoro-4-methyl-5-(7-(methylamino)-1,6-naphthyridin-3-yl)phenyl)picolinamide] | ≥ 0.5 µM | 
CNc1cc2ncc(-c3cc(NC(=O)c4noc5c4CN(C(C)C)CC5)cnc3C)cc2cn1 [Compound 254, 5-isopropyl-N-(6-methyl-5-(7-(methylamino)-1,6-naphthyridin-3-yl)pyridin-3-yl)-4,5,6,7-tetrahydroisoxazolo[4,5-c]pyridine-3-carboxamide] |  | 0.1 to 0.5 µM
CNc1cc2ncc(-c3cc(NC(=O)c4noc5c4CCCC5)ccc3C)cc2cn1 [Compound 228, N-(4-methyl-3-(7-(methylamino)-1,6-naphthyridin-3-yl)phenyl)-4,5,6,7-tetrahydrobenzo[d]isoxazole-3-carboxamide] |  | 0.1 to 0.5 µM
CNc1cc2ncc(-c3cc(C(=O)Nc4cc(C(C)(C)C#N)ccn4)cnn3)cc2cn1 [Compound 213, N-(4-(2-cyanopropan-2-yl)pyridin-2-yl)-6-(7-(methylamino)-1,6-naphthyridin-3-yl)pyridazine-4-carboxamide] |  | ≥ 0.5 µM
CNc1cc2ncc(-c3cc(NC(=O)c4noc5c4CC(F)(F)CC5)cnc3C)cc2cn1 [Compound 247, 5,5-difluoro-N-(6-methyl-5-(7-(methylamino)-1,6-naphthyridin-3-yl)pyridin-3-yl)-4,5,6,7-tetrahydrobenzo[d]isoxazole-3-carboxamide] |  | 0.02 to 0.1 µM
CNc1cc2ncc(-c3cc(NC(=O)c4cnc5n4CCCC5C)ccc3C)cc2cn1 (centres unmarked) [Compound 214, 8-methyl-N-(4-methyl-3-(7-(methylamino)-1,6-naphthyridin-3-yl)phenyl)-5,6,7,8-tetrahydroimidazo[1,2-a]pyridine-3-carboxamide] |  | 0.02 to 0.1 µM
CNc1cc2ncc(-c3cc(NC(=O)c4cnc5n4C[C@@H](C)CC5)cnc3C)cc2cn1 (single isomer, unassigned) [Compound 258] |  | 0.02 to 0.1 µM
CNc1cc2ncc(-c3cc(NC(=O)c4cnc5n4CC(C(F)(F)F)CC5)cnc3C)cc2cn1 (centres unmarked) [Compound 243] |  | 0.02 to 0.1 µM
CNc1cc2ncc(-c3cc(NC(=O)c4cc(C(F)F)ccn4)cnc3C)cc2cn1 [Compound 22, 4-(Difluoromethyl)-N-(6-methyl-5-(7-(methylamino)-1,6-naphthyridin-3-yl)pyridin-3-yl)picolinamide] | 0.02 to 0.1 µM | 
CNc1cc2ncc(-c3cc(NC(=O)c4ccnc(C5(F)CC5)c4)c(F)cc3C)cc2cn1 [Compound 221, N-(2-fluoro-4-methyl-5-(7-(methylamino)-1,6-naphthyridin-3-yl)phenyl)-2-(1-fluorocyclopropyl)isonicotinamide] |  | 0.02 to 0.1 µM
CNc1cc2ncc(-c3cc(NC(=O)c4ccnc(C(C)(C)C)c4)cnc3C)cc2cn1 [Compound 58, 2-(tert-Butyl)-N-(6-methyl-5-(7-(methylamino)-1,6-naphthyridin-3-yl)pyridin-3-yl)isonicotinamide] | 0.02 to 0.1 µM | 
CNc1cc2ncc(-c3cc(NC(=O)c4noc5c4CC(C)(C)CC5)cnc3C)cc2cn1 [Compound 257, 5,5-dimethyl-N-(6-methyl-5-(7-(methylamino)-1,6-naphthyridin-3-yl)pyridin-3-yl)-4,5,6,7-tetrahydrobenzo[d]isoxazole-3-carboxamide] |  | 0.02 to 0.1 µM
CNc1cc2ncc(-c3cc(NC(=O)c4n[nH]c5c4C[C@H](C)O[C@@H]5C)ccc3C)cc2cn1 [Compound 264, (5S,7R)-5,7-dimethyl-N-(4-methyl-3-(7-(methylamino)-1,6-naphthyridin-3-yl)phenyl)-1,4,5,7-tetrahydropyrano[3,4-c]pyrazole-3-carboxamide] |  | 0.02 to 0.1 µM
CNc1cc2ncc(-c3cc(NC(=O)C[C@H]4C[C@H](C(F)(F)F)CCO4)cnc3C)cc2cn1 (single isomer, unassigned) [Compound 36] | 0.1 to 0.5 µM | 
CNc1cc2ncc(-c3cc(NC(=O)c4cnc5n4C[C@H](C)CC5)ccc3C)cc2cn1 (single isomer, unassigned) [Compound 230] |  | 0.02 to 0.1 µM
Cc1ccc(NC(=O)c2ccnc(C(C)(C)F)c2)cc1-c1ccc2c3c(ncc2c1)NC(=O)C3 [Compound 276, 2-(2-fluoropropan-2-yl)-N-(4-methyl-3-(2-oxo-2,3-dihydro-1H-pyrrolo[2,3-c]isoquinolin-7-yl)phenyl)isonicotinamide] |  | < 0.02 µM
CNc1cc2ncc(-c3cc(NC(=O)c4ccnc(C(C)(C)F)c4)c(F)cc3C)cc2cn1 [Compound 222, N-(2-fluoro-4-methyl-5-(7-(methylamino)-1,6-naphthyridin-3-yl)phenyl)-2-(2-fluoropropan-2-yl)isonicotinamide] |  | 0.02 to 0.1 µM
CNc1cc2ncc(-c3cc(NC(=O)c4nccc(C(F)(F)F)c4Cl)cnc3C)cc2cn1 [Compound 26, 3-Chloro-N-(6-methyl-5-(7-(methylamino)-1,6-naphthyridin-3-yl)pyridin-3-yl)-4-(trifluoromethyl)picolinamide] | 0.02 to 0.1 µM | 

Structure (SMILES) | GI50 (Table A1) | GI50 (Table A2)
CNc1cc2ncc(-c3cc(NC(=O)c4c[nH]c5ccccc45)cnc3C)cc2cn1 [Compound 194, N-(6-methyl-5-(7-(methylamino)-1,6-naphthyridin-3-yl)pyridin-3-yl)-1H-indole-3-carboxamide] |  | 0.02 to 0.1 µM
CNc1cc2ncc(-c3cc(NC(=O)c4nccc(C(F)(F)F)c4Cl)ccc3C)cc2cn1 [Compound 6, 3-Chloro-N-(4-methyl-3-(7-(methylamino)-1,6-naphthyridin-3-yl)phenyl)-4-(trifluoromethyl)picolinamide] | < 0.02 µM | 
CNc1ncc2cc(-c3cc(NC(=O)c4ccnc(C5(F)CC5)c4)ccc3C)cnc2c1Cl [Compound 269, N-[3-[8-chloro-7-(methylamino)-1,6-naphthyridin-3-yl]-4-methyl-phenyl]-2-(1-fluorocyclopropyl)pyridine-4-carboxamide] |  | 0.1 to 0.5 µM
CNc1cc2ncc(-c3cc(NC(=O)c4cc(C(O)C5CC5)ccn4)cnc3C)cc2cn1 (centres unmarked) [Compound 201, 4-(cyclopropyl(hydroxy)methyl)-N-(6-methyl-5-(7-(methylamino)-1,6-naphthyridin-3-yl)pyridin-3-yl)picolinamide] |  | 0.02 to 0.1 µM
CNc1cc2ncc(-c3cc(NC(=O)c4cc([C@@H](O)C(C)(F)F)ccn4)cnc3C)cc2cn1 (single isomer, unassigned) [Compound 248] |  | 0.02 to 0.1 µM
CNc1cc2ncc(-c3cc(NC(=O)c4cc(C(C)(C)C#N)ccn4)ccc3Cl)cc2cn1 [Compound 41, N-(4-Chloro-3-(7-(methylamino)-1,6-naphthyridin-3-yl)phenyl)-4-(2-cyanopropan-2-yl)picolinamide] | 0.02 to 0.1 µM | 
CNc1cc2ncc(-c3cc(NC(=O)c4cccc5c4CCC[C@H]5O)cnc3C)cc2cn1 (single isomer, unassigned) [Compound 208] |  | ≥ 0.5 µM
CNc1cc2ncc(-c3cc(NC(=O)c4cccc(C(C)(C)C#N)c4)c(F)cc3C)cc2cn1 [Compound 223, 3-(2-cyanopropan-2-yl)-N-(2-fluoro-4-methyl-5-(7-(methylamino)-1,6-naphthyridin-3-yl)phenyl)benzamide] |  | 0.02 to 0.1 µM
CNc1cc2ncc(-c3cc(NC(=O)c4ccccc4NC(C)C(F)F)cnc3C)cc2cn1 (centres unmarked) [Compound 226, 2-((1,1-difluoropropan-2-yl)amino)-N-(6-methyl-5-(7-(methylamino)-1,6-naphthyridin-3-yl)pyridin-3-yl)benzamide] |  | 0.02 to 0.1 µM
CNc1cc2ncc(-c3cc(NC(=O)c4n[nH]c5c4C[C@@H]4C[C@H]54)cnc3C)cc2cn1 [Compound 252, (4aS,5aS)—N-(6-methyl-5-(7-(methylamino)-1,6-naphthyridin-3-yl)pyridin-3-yl)-4,4a,5,5a-tetrahydro-1H-cyclopropa[4,5]cyclopenta[1,2-c]pyrazole-3-carboxamide] |  | 0.02 to 0.1 µM
CNc1cc2ncc(-c3cc(NC(=O)c4ccnc(C5(F)CC5)c4)cnc3C)cc2cn1 [Compound 33, 2-(1-Fluorocyclopropyl)-N-(6-methyl-5-(7-(methylamino)-1,6-naphthyridin-3-yl)pyridin-3-yl)isonicotinamide] | < 0.02 µM | 
CNc1cc2ncc(-c3cc(NC(=O)c4ccnc(C(F)(F)F)c4)ccc3C)cc2cn1 [Compound 2, N-(4-methyl-3-(7-(methylamino)-1,6-naphthyridin-3-yl)phenyl)-2-(trifluoromethyl)isonicotinamide] | 0.02 to 0.1 µM | 
CNc1cc2ncc(-c3cc(NC(=O)c4nccc(C(C)C)c4Cl)cnc3C)cc2cn1 [Compound 256, 3-chloro-4-isopropyl-N-(6-methyl-5-(7-(methylamino)-1,6-naphthyridin-3-yl)pyridin-3-yl)picolinamide] |  | 0.02 to 0.1 µM
Cc1ccc(NC(=O)c2cc(C(C)(C)C#N)ccn2)cc1-c1ccc2c3c(ncc2c1)NC(=O)C3 [Compound 275, 4-(2-cyanopropan-2-yl)-N-(4-methyl-3-(2-oxo-2,3-dihydro-1H-pyrrolo[2,3-c]isoquinolin-7-yl)phenyl)picolinamide] |  | 0.02 to 0.1 µM
CNc1cc2ncc(-c3cc(NC(=O)c4nccc(C(F)(F)F)c4F)cnc3C)cc2cn1 [Compound 52, 3-Fluoro-N-(6-methyl-5-(7-(methylamino)-1,6-naphthyridin-3-yl)pyridin-3-yl)-4-(trifluoromethyl)picolinamide] | < 0.02 µM | 
CNc1cc2ncc(-c3cc(NC(=O)c4cc(C(O)CC(F)(F)F)ccn4)cnc3C)cc2cn1 (centres unmarked) [Compound 242, N-(6-methyl-5-(7-(methylamino)-1,6-naphthyridin-3-yl)pyridin-3-yl)-4-(3,3,3-trifluoro-1-hydroxypropyl)picolinamide] |  | 0.02 to 0.1 µM
CNc1cc2ncc(-c3cc(NC(=O)N(C)c4cc(C(F)F)ccn4)ccc3C)cc2cn1 [Compound 189, 1-(4-(difluoromethyl)pyridin-2-yl)-1-methyl-3-(4-methyl-3-(7-(methylamino)-1,6-naphthyridin-3-yl)phenyl)urea] |  | 0.1 to 0.5 µM

— US20250017914A1, “6-AZA-QUINOLINE DERIVATIVES AND RELATED USES” (Black Diamond Therapeutics, Inc., priority 2021, published 2025)
